For this test, the target named is T1, APOL1 (Homo sapiens, UniProt O14791).
T1 sequence (O14791 1-398 S342G/I384M): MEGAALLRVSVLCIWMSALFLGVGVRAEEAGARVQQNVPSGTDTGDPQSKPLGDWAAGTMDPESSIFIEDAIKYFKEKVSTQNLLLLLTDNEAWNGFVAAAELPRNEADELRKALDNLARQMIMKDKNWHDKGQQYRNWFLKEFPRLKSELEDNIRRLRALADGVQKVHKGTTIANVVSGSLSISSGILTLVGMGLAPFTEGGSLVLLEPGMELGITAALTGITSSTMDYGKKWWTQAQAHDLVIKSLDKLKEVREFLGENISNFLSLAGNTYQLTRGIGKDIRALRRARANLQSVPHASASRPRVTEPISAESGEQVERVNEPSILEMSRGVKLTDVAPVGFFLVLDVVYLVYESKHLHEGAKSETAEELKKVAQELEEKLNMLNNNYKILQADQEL
Nature of the test: MultiTox-Fluor Multiplex Cytotoxicity Assay in tet-inducible APOL1 T-REx-HEK293 cells (cell rescue, ratio of dead to live cells). The format is cell-based. Conditions: tet-inducible transgenic APOL1 T-REx-HEK293 cell lines, 50 ng/mL tet, 24 hours; read-out: IP50 (i.e., IC50 for cell proliferation). The gist of the method:
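T-REx-HEK293 cells with tet-inducible APOL1 were treated with compound (10 μM top, 10-point 3-fold dilution, duplicate) plus 50 ng/mL tetracycline for 24 h at 37° C, in DMEM with 2% tet-free FBS. MultiTox-Fluor protease signals gave a dead/live ratio, normalized to no tet (100% viability) and tet alone (0%).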

As to `C[C@H]1C[C@@]2(CCN1Cc1cccc(Cl)c1O)OCCc1cc(Cl)sc12` [Compound 690], the IC50 lay within 500 to 1000 nM. With `Cc1cnccc1CN1CC[C@]2(C[C@@H]1C)OCCc1cc(Cl)sc12` [Compound 693], the IC50 was 500 to 1000 nM. Regarding `C#CC(C)N1CC[C@]2(C[C@@H]1C)OCCc1cc(Cl)sc12` (stereo partly drawn) [Compound 694, (2′S, 7R)-2-chloro-2′-methyl-1′-(1-methylprop-2-ynyl)spiro[4,5-dihydrothieno[2,3-c]pyran-7,4′-piperidine]], the IC50 was 500 to 1000 nM. `C[C@H]1C[C@]2(CCN1Cc1cn(CCS(C)(=O)=O)nn1)OCCc1cc(Cl)sc12` [Compound 695, (2′S,7S)-2-chloro-2′-methyl-1′-[[1-(2-methylsulfonylethyl)triazol-4-yl]methyl]spiro[4,5-dihydrothieno[2,3-c]pyran-7,4′-piperidine]]: the IC50 lay in the range of 500 to 1000 nM. The result for `C[C@H]1C[C@@]2(CCN1Cc1cn(CCS(C)(=O)=O)nn1)OCCc1cc(Cl)sc12` [Compound 696, (2′S, 7R)-2-chloro-2′-methyl-1′-[[1-(2-methylsulfonylethyl)triazol-4-yl]methyl]spiro[4,5-dihydrothieno[2,3-c]pyran-7,4-piperidine]] reads 100 to 500 nM; that for `C[C@H]1C[C@@]2(CCN1Cc1cnn(CCS(C)(=O)=O)c1)OCCc1cc(Cl)sc12` [Compound 697, (2′S, 7R)-2-chloro-2′-methyl-1′-[[1-(2-methylsulfonylethyl)pyrazol-4-yl]methyl]spiro[4,5-dihydrothieno[2,3-c]pyran-7,4′-piperidine]], less than 100 nM; that for `C[C@H]1C[C@@]2(CCN1Cc1cn[nH]c1)OCCc1cc(Cl)sc12` [Compound 698, (2′S, 7R)-2-chloro-2′-methyl-1′-(1H-pyrazol-4-ylmethyl)spiro[4,5-dihydrothieno[2,3-c]pyran-7,4′-piperidine]], less than 100 nM. The result for `COCCn1cc(CN2CC[C@]3(C[C@@H]2C)OCCc2cc(Cl)sc23)cn1` [Compound 699, (2S,7R)-2′-chloro-1-((1-(2-methoxyethyl)-1H-pyrazol-4-yl)methyl)-2-methyl-4′,5′-dihydrospiro[piperidine-4,7′-thieno[2,3-c]pyran]] reads less than 100 nM; that for `C[C@H]1C[C@@]2(CCN1Cc1cnn(CC(=O)N(C)C)c1)OCCc1cc(Cl)sc12` [Compound 700], less than 100 nM. `C[C@H]1C[C@@]2(CCN1Cc1cnn(Cc3cccnc3)c1)OCCc1cc(Cl)sc12` [Compound 701]: the IC50 was less than 100 nM. Take `CCn1cc(CN2CC[C@]3(C[C@@H]2C)OCCc2cc(Cl)sc23)cn1` [Compound 702]: the IC50 was less than 100 nM. In the case of `CNC(=O)Cn1cc(CN2CC[C@]3(C[C@@H]2C)OCCc2cc(Cl)sc23)cn1` [Compound 703], the IC50 is less than 100 nM. The result for `CC(C)Cn1cc(CN2CC[C@]3(C[C@@H]2C)OCCc2cc(Cl)sc23)cn1` [Compound 704] reads 100 to 500 nM. For the molecule `C[C@H]1C[C@@]2(CCN1Cc1cnn(CC(N)=O)c1)OCCc1cc(Cl)sc12` [Compound 705], the IC50 was 100 to 500 nM. As for `C[C@H]1C[C@@]2(CCN1Cc1cnn(CC3CCOCC3)c1)OCCc1cc(Cl)sc12` [Compound 706], the IC50 is less than 100 nM. Take `C[C@H]1C[C@@]2(CCN1Cc1cnn(Cc3ccc(F)cc3)c1)OCCc1cc(Cl)sc12` [Compound 707]: the IC50 is less than 100 nM. In the case of `C[C@H]1C[C@@]2(CCN1C[C@H](O)C(N)=O)OCCc1cc(Cl)sc12` [Compound 708, (2S)-3-[(2′S, 7R)-2-chloro-2′-methyl-spiro[4,5-dihydrothieno[2,3-c]pyran-7,4′-piperidine]-1′-yl]-2-hydroxy-propanamide], the IC50 lay within 100 to 500 nM.

As to `C[C@H]1C[C@@]2(CCN1C[C@@H](O)C(N)=O)OCCc1cc(Cl)sc12` [Compound 709, (2R)-3-[(2′S, 7R)-2-chloro-2′-methyl-spiro[4,5-dihydrothieno[2,3-c]pyran-7,4′-piperidine]-1′-yl]-2-hydroxy-propanamide], the IC50 was 100 to 500 nM. In the case of `CNC(=O)[C@@H](O)CN1CC[C@]2(C[C@@H]1C)OCCc1cc(Cl)sc12` [Compound 710, (2S)-3-[(2′S, 7R)-2-chloro-2′-methyl-spiro[4,5-dihydrothieno[2,3-c]pyran-7,4′-piperidine]-1′-yl]-2-hydroxy-N-methyl-propanamide], the IC50 was 500 to 1000 nM.

On to `C[C@H]1C[C@@]2(CCN1C[C@H](O)C(=O)N(C)C)OCCc1cc(Cl)sc12` [Compound 711, (2S)-3-[(2′S, 7R)-2-chloro-2′-methyl-spiro[4,5-dihydrothieno[2,3-c]pyran-7,4′-piperidine]-1′-yl]-2-hydroxy-N,N-dimethyl-propanamide], for which the IC50 was 100 to 500 nM. With `C[C@H]1C[C@@]2(CCN1Cc1cccc(Cl)c1O)OCCc1c2sc(Cl)c1CO` [Compound 712, 2-chloro-6-[[(2′S, 7R)-2-chloro-3-(hydroxymethyl)-2′-methyl-spiro[4,5-dihydrothieno[2,3-c]pyran-7,4′-piperidine]-1′-yl]methyl]phenol], the IC50 was in the range of 500 to 1000 nM.

For the molecule `C[C@H]1C[C@@]2(CCN1Cc1ccccc1F)OCCc1c2sc(Cl)c1CO` [Compound 713], the IC50 was 100 to 500 nM. Turning to `C[C@H]1C[C@@]2(CCN1Cc1ccc(N3CCCC3=O)cc1)OCCc1c2sc(Cl)c1CO` [Compound 714], the IC50 is less than 100 nM. As to `C[C@H]1C[C@@]2(CCN1Cc1ccc(OCCO)cc1)OCCc1c2sc(Cl)c1CO` [Compound 715], the IC50 was less than 100 nM. The result for `COc1cc(OCC(N)=O)ccc1CN1CC[C@]2(C[C@@H]1C)OCCc1c2sc(Cl)c1CO` [Compound 716] reads 100 to 500 nM. As for `Cc1nccn1-c1ccc(CN2CC[C@]3(C[C@@H]2C)OCCc2c3sc(Cl)c2CO)cc1` [Compound 717], the figure is 100 to 500 nM; as for `C[C@H]1C[C@@]2(CCN1Cc1cccc(OCC(N)=O)c1)OCCc1c2sc(Cl)c1CO` [Compound 718], 100 to 500 nM; as for `C[C@H]1C[C@@]2(CCN1Cc1cn(C)nn1)OCCc1c2sc(Cl)c1CO` [Compound 719], 100 to 500 nM. Take `COc1cnc(CN2CC[C@]3(C[C@@H]2C)OCCc2c3sc(Cl)c2CO)cn1` [Compound 720]: the IC50 was 100 to 500 nM. On to `C[C@H]1C[C@@]2(CCN1CCCn1cccn1)OCCc1c2sc(Cl)c1CO` [Compound 721], for which the IC50 lay within 500 to 1000 nM. Consider `Cc1cncc(CN2CC[C@]3(C[C@@H]2C)OCCc2c3sc(Cl)c2CO)c1` [Compound 723], for which the IC50 was 100 to 500 nM. As for `C[C@H]1C[C@@]2(CCN1Cc1cccc(OCCO)c1)OCCc1c2sc(Cl)c1CO` [Compound 725], the IC50 was 100 to 500 nM. As for `C[C@H]1C[C@@]2(CCN1Cc1ccc(F)cn1)OCCc1c2sc(Cl)c1CO` [Compound 726], the IC50 is 500 to 1000 nM. As to `COc1cncc(CN2CC[C@]3(C[C@@H]2C)OCCc2c3sc(Cl)c2CO)c1` [Compound 727], the IC50 is 100 to 500 nM.

On to `C[C@H]1C[C@@]2(CCN1Cc1cnc(N3CCOCC3)nc1)OCCc1c2sc(Cl)c1CO` [Compound 728], for which the IC50 is less than 100 nM. The result for `COc1ncc(CN2CC[C@]3(C[C@@H]2C)OCCc2c3sc(Cl)c2CO)cn1` [Compound 729] reads less than 100 nM; that for `CNC(=O)c1cccc(CN2CC[C@]3(C[C@@H]2C)OCCc2c3sc(Cl)c2CO)c1` [Compound 730], 100 to 500 nM; that for `Cc1cncc(N2CCC(CN3CC[C@]4(C[C@@H]3C)OCCc3c4sc(Cl)c3CO)CC2)n1` [Compound 731], 500 to 1000 nM. Turning to `Cc1ccc(CN2CC[C@]3(C[C@@H]2C)OCCc2c3sc(Cl)c2CO)c(C)n1` [Compound 732], the IC50 was 500 to 1000 nM.

On to `CCc1ncc(CN2CC[C@]3(C[C@@H]2C)OCCc2c3sc(Cl)c2CO)cn1` [Compound 733], for which the IC50 was 100 to 500 nM. As for `C[C@H]1C[C@@]2(CCN1Cc1ccc(S(C)(=O)=O)nc1)OCCc1c2sc(Cl)c1CO` [Compound 734], the IC50 lay in the range of 100 to 500 nM. Consider `C[C@H]1C[C@@]2(CCN1Cc1ccncc1F)OCCc1c2sc(Cl)c1CO` [Compound 735], for which the IC50 was 500 to 1000 nM. `Cc1ncccc1CN1CC[C@]2(C[C@@H]1C)OCCc1c2sc(Cl)c1CO` [Compound 736]: the IC50 was 500 to 1000 nM. `C[C@H]1C[C@@]2(CCN1Cc1cnccn1)OCCc1c2sc(Cl)c1CO` [Compound 737]: the IC50 lay in the range of 500 to 1000 nM.

Regarding `Cc1ncc(CN2CC[C@]3(C[C@@H]2C)OCCc2c3sc(Cl)c2CO)cn1` [Compound 738], the IC50 was in the range of 100 to 500 nM. Take `Cc1cccc(CN2CC[C@]3(C[C@@H]2C)OCCc2c3sc(Cl)c2CO)n1` [Compound 739]: the IC50 is 500 to 1000 nM.

As to `C[C@H]1C[C@@]2(CCN1Cc1ncn3ccccc13)OCCc1c2sc(Cl)c1CO` [Compound 740], the IC50 was in the range of 500 to 1000 nM. For `COc1cc(CN2CC[C@]3(C[C@@H]2C)OCCc2c3sc(Cl)c2CO)ccc1OCC(N)=O` [Compound 742], the IC50 was less than 100 nM. As for `C[C@H]1C[C@@]2(CCN1Cc1ccc(C(=O)N(C)C)cc1)OCCc1c2sc(Cl)c1CO` [Compound 743], the IC50 lay in the range of 100 to 500 nM. For the molecule `COc1ccc(CN2CC[C@]3(C[C@@H]2C)OCCc2c3sc(Cl)c2CO)cc1OCC(N)=O` [Compound 744], the IC50 was less than 100 nM. As for `COCCc1ncc(CN2CC[C@]3(C[C@@H]2C)OCCc2c3sc(Cl)c2CO)cn1` [Compound 745], the IC50 lay in the range of 100 to 500 nM.

With `C[C@H]1C[C@@]2(CCN1CC1(C)COC1)OCCc1c2sc(Cl)c1CO` [Compound 746], the IC50 was 500 to 1000 nM.

The record behind these values is US20250171459A1, “2-METHYL-4',5'-DIHYDROSPIRO[PIPERIDINE-4,7'-THIENO[2,3-C]PYRAN] DERIVATIVES AS INHIBITORS OF APOL1 AND METHODS OF USING SAME” (Vertex Pharmaceuticals Incorporated, priority 2022, published 2025).
